# US10500304B2, “Films and methods of manufacture” (priority 2013, dated 2019)
# Columns and labels:
# [1] = tested on: Pseudomonas aeruginosa ATCC 10145; assay: Zone of inhibition (ZOI) on Mueller Hinton agar; format: cell-based; conditions: 6 mm punches or filter disk, 36° C., 16-18 hours
# Description: (§1) Testing was performed with 4 different species of bacteria. […] S. aureus ATCC 25923; S. epidermidis ATCC 12228; Pseudomonas aeruginosa ATCC 10145; Enterobacter [NT] 29941 Glass culture tubes (VWR #:89001-480); Blank Disks, 6.35 mm diameter (VWR#: 90002-114); 6 mm Disposable Biopsy Punches (VWR#: 21909-144); Mueller Hinton agar dishes (VWR #: 100219-188); 0.5 McFarland turbidity standard (VWR #: 29447-318); dPBS (VWR #: 12001-664); Cotton swabs; Incubator; Thermometer; Bacterial hood […] Swirl the swab in this tube and when removing the swab, press it into the side of the tube above the liquid. • Inoculate Mueller-Hinton agar plates by streaking once down the middle of the plate. […] After streaking the entire plate, streak the swab around the rim of the plate. • Place filter disks/punches onto the dish. • Place in the 36° C. incubator within 15 minutes inoculating dish. • Incubate 16-18 hours. • Measure ZOI in millimeters using slide caliper (ZOI was measured a linear distance measured through the center point of the disk). FIG. 28 illustrates the minimum effective concentration and measured ZOI.
# [2] = tested on: S. epidermidis ATCC 12228; assay: Zone of inhibition (ZOI) on Mueller Hinton agar; format: cell-based; conditions: 6 mm punches or filter disk, 36° C., 16-18 hours
# Description: as §1
# S. aureus ATCC 25923 = assay: Zone of inhibition (ZOI) on Mueller Hinton agar; format: cell-based; conditions: 6 mm punches or filter disk, 36° C., 16-18 hours
# Description: as §1
# [3] = tested on: Enterobacter cloacae ATCC 29941; assay: Zone of inhibition (ZOI) on Mueller Hinton agar; format: cell-based; conditions: 6 mm punches or filter disk, 36° C., 16-18 hours
# Description: as §1
# [4] = Implantation of sleeve-covered metal plates in sheep; conditions: within 24 hours after insertion, sleeves
# Description: In one exemplary embodiment, implants were tested by implantation in sheep. The implants were metal plates with tubular, thin (0.05-0.08 mm), transparent polymer sleeves carefully slipped over the metal plates just before they were surgically inserted and attached to the bone. […] The sleeves were comprised of a synthetic copolyester (glycolide, caprolactone, trimethylenecarbonate, lactide) with aperture holes of 1.5 mm diameter equally spaced throughout.
# [5] = In vitro release of triclosan from films; format: physicochemical; conditions: in vitro testing
molecule,measurement,setting,value
Gentamicin [120 ug gentamicin],Avg. ZOI (mm) P. aeruginosa,[1]; 0.1-5% films data set,26.7 mm
same,Avg. ZOI (mm) P. aeruginosa,[1]; 13% film tested separately,24.90 mm
same,Avg. ZOI (mm) S. epidermidis,[2]; 0.1-5% films data set,34.9 mm
same,Avg. ZOI (mm) S. epidermidis,[2]; 13% film tested separately,31.37 mm
same,Avg. ZOI (mm) S. aureus,S. aureus ATCC 25923; 0.1-5% films data set,30.5 mm
same,Avg. ZOI (mm) S. aureus,S. aureus ATCC 25923; 13% film tested separately,28.73 mm
same,Avg. ZOI (mm) E. cloacae,[3]; 0.1-5% films data set,22.4 mm
same,Avg. ZOI (mm) E. cloacae,[3]; 13% film tested separately,25.27 mm
gentamicin,gentamicin released into the adjacent tissue,[4],Approximately 50%
"Oc1cc(Cl)ccc1Oc1ccc(Cl)cc1Cl [triclosan, 2,4,4′-trichloro-2′-hydroxydiphenyl ether]",initial burst release,[5],minimal
same,period of release from films,[5],slowly over a to 3 weeks period
